Experimental data from ChEMBL document CHEMBL2177034, “Inhibition of hypoxia inducible factor-2 transcription: isolation of active modulators from marine sponges” (J Nat Prod, 2012).
Active and inactive are the calls of the source.

Assays:
[1] = Cytotoxicity against human SK-RC-28 cells expressing HIF1alpha after 2 days by XTT assay; format: functional, cell-based; settings: 48 h
786-0 [2] = test: Cytotoxicity against human 786-0 cells expressing HIF2alpha after 2 days by XTT assay; format: functional, cell-based; settings: 786-0, 48 h
total protein expression = test: Inhibition of total protein expression in serum deprived human 786-0 cells at 20 uM after 48 hrs relative to control; format: cell-based; settings: 786-0 cells
786-0 [3] = test: Inhibition of HIF-mediated VEGFA protein expression in serum deprived human 786-0 cells at 21 uM after 48 hrs relative to control; format: cell-based
[4] = target: T1, Endothelial PAS domain-containing protein 1 (Homo sapiens, UniProt Q99814); test: Inhibition of HIF2alpha in human 786-0 cells expressing truncated HIF1alpha assessed as reduction in luciferase activity after 24 hrs by reporter gene assay; format: cell-based
T1 sequence (Q99814 whole entry, the tested form may be a part): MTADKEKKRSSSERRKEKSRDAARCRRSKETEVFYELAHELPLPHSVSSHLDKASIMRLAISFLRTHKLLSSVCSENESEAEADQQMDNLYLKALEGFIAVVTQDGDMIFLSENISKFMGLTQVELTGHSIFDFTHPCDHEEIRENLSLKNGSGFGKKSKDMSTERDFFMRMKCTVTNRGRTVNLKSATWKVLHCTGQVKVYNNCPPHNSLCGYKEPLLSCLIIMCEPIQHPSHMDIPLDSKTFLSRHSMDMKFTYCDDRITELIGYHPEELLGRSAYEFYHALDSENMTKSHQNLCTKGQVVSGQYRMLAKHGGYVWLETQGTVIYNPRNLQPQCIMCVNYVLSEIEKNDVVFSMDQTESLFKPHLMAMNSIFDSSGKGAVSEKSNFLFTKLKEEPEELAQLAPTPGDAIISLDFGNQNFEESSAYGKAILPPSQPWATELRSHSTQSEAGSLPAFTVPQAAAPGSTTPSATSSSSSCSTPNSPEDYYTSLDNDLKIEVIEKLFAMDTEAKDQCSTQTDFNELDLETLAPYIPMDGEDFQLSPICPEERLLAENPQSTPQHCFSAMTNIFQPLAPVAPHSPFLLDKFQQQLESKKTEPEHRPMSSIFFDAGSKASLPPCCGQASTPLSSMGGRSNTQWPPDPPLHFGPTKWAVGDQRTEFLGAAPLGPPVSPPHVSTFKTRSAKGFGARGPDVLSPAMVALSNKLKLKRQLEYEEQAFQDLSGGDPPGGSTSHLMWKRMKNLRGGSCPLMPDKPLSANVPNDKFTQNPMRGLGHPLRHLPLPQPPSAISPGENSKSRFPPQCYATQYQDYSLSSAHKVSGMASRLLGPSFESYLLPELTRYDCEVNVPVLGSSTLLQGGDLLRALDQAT

[5] = Downregulation of actin mRNA expression in human SK-RC-28 cells expressing HIF2alpha at 21 uM after 48 hrs by RT-PCr analysis; format: ADME, cell-based
[6] = Downregulation of actin mRNA expression in human RCC4 cells expressing HIF1alpha and HIF2alpha at 21 uM after 48 hrs by RT-PCr analysis; format: ADME, cell-based; settings: rcc4, 48 h
786-0 [7] = test: Downregulation of actin mRNA expression in human […] at 21 uM after 48 hrs by RT-PCr analysis; format: ADME, cell-based; settings: 786-0, 48 h
[8] = Downregulation of HIF2alpha mRNA expression in human SK-RC-28 cells at 21 uM after 48 hrs by RT-PCR analysis; format: functional, cell-based
[9] = Downregulation of HIF1alpha mRNA expression in human SK-RC-28 cells at 21 uM after 48 hrs by RT-PCR analysis; format: functional, cell-based
[10] = Downregulation of CCND1 mRNA expression in human SK-RC-28 cells at 21 uM after 48 hrs by RT-PCR analysis; format: functional, cell-based
[11] = Downregulation of GLUT1 mRNA expression in human SK-RC-28 cells at 21 uM after 48 hrs by RT-PCR analysis; format: functional, cell-based
[12] = Downregulation of TGFalpha mRNA expression in human SK-RC-28 cells at 21 uM after 48 hrs by RT-PCR analysis; format: functional, cell-based
[13] = target: Hypoxia-inducible factor 1-alpha (Homo sapiens) (UniProt Q16665); test: Inhibition of HIF1alpha in human SK-RC-28 cells assessed as reduction in VEGFA expression at 21 uM after 48 hrs by RT-PCR analysis; format: cell-based
Chain of Hypoxia-inducible factor 1-alpha (Homo sapiens) (Q16665 whole entry, looked up): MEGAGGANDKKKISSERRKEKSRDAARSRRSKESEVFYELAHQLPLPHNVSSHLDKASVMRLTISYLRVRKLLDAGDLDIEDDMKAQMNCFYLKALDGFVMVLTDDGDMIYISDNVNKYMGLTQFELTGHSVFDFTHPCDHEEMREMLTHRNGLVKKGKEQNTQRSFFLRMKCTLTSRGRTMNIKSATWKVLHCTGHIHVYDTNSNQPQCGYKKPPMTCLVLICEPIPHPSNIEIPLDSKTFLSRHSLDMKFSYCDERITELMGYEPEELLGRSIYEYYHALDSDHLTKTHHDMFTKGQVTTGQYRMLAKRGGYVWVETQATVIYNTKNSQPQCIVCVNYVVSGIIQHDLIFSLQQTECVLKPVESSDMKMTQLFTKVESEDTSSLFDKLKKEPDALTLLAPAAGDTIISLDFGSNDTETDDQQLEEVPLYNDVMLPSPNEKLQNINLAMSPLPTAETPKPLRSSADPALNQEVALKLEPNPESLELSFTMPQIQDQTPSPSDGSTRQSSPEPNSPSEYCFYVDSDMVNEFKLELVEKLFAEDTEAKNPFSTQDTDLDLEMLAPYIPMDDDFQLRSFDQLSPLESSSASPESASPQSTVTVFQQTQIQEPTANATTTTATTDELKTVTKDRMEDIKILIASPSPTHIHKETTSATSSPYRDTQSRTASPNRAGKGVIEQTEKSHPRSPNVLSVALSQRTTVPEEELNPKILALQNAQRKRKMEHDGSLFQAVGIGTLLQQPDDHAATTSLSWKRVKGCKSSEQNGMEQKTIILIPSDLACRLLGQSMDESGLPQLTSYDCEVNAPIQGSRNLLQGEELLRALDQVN

[14] = target: Hypoxia-inducible factor 1-alpha (Homo sapiens) (UniProt Q16665); test: Inhibition of HIF1alpha in human SK-RC-28 cells assessed as reduction in carbonic anhydrase 9 expression at 21 uM after 48 hrs by RT-PCR analysis; format: cell-based
[15] = Downregulation of HIF2alpha mRNA expression in human RCC4 cells at 21 uM after 48 hrs by RT-PCR analysis; format: functional, cell-based
[16] = Downregulation of HIF1alpha mRNA expression in human RCC4 cells at 21 uM after 48 hrs by RT-PCR analysis; format: functional, cell-based
[17] = target: Hypoxia inducible factors; HIF-1-alpha, HIF-2-alpha (Homo sapiens) (UniProt Q16665+Q99814); test: Inhibition of HIF1alpha/2alpha in human RCC4 cells assessed as reduction in VEGFA mRNA expression at 21 uM after 48 hrs by RT-PCR analysis; format: cell-based
[18] = target: T1, Endothelial PAS domain-containing protein 1; test: Inhibition of HIF2alpha in human RCC4 cells coexpressing HIF1alpha assessed as reduction in CCND1 mRNA expression at 21 uM after 48 hrs by RT-PCR analysis; format: cell-based
[19] = target: T1, Endothelial PAS domain-containing protein 1; test: Inhibition of HIF2alpha in human RCC4 cells coexpressing HIF1alpha assessed as reduction in GLUT1 mRNA expression at 21 uM after 48 hrs by RT-PCR analysis; format: cell-based
[20] = target: T1, Endothelial PAS domain-containing protein 1; test: Inhibition of HIF2alpha in human RCC4 cells coexpressing HIF1alpha assessed as reduction in TGFalpha mRNA expression at 21 uM after 48 hrs by RT-PCR analysis; format: cell-based
[21] = target: Hypoxia-inducible factor 1-alpha (Homo sapiens) (UniProt Q16665); test: Inhibition of HIF1alpha in human RCC4 cells coexpressing HIF2alpha assessed as decrease in carbonic anhydrase 9 mRNA expression at 21 uM after 48 hrs by RT-PCR analysis; format: cell-based
786-0 [22] = test: Downregulation of HIF2alpha mRNA expression in human 786-0 cells at 21 uM after 48 hrs by RT-PCR analysis; format: functional, cell-based
786-0 [23] = test: Downregulation of HIF1alpha mRNA expression in human 786-0 cells at 21 uM after 48 hrs by RT-PCR analysis; format: functional, cell-based
[24] = target: T1, Endothelial PAS domain-containing protein 1; test: Inhibition of HIF2alpha in human 786-0 cells assessed as reduction in VEGFA expression at 21 uM after 48 hrs by RT-PCR analysis; format: cell-based
[25] = target: T1, Endothelial PAS domain-containing protein 1; test: Inhibition of HIF2alpha in human 786-0 cells assessed as reduction in CCND1 mRNA expression at 21 uM after 48 hrs by RT-PCR analysis; format: cell-based
[26] = target: T1, Endothelial PAS domain-containing protein 1; test: Inhibition of HIF2alpha in human 786-0 cells assessed as reduction in GLUT1 mRNA expression at 21 uM after 48 hrs by RT-PCR analysis; format: cell-based
[27] = target: T1, Endothelial PAS domain-containing protein 1; test: Inhibition of HIF2alpha in human 786-0 cells assessed as reduction in TGFalpha mRNA expression at 21 uM after 48 hrs by RT-PCR analysis; format: cell-based
786-0 [28] = test: Downregulation of carbonic anhydrase 9 expression in human 786-0 cells at 21 uM after 48 hrs by RT-PCR analysis; format: functional, cell-based

C1=C/[C@H]2[C@@H]3CCCC[C@H]3C[C@@H]2NCCCN[C@@H]2C[C@@H]3CCCC[C@H]3[C@@H]2/C=C/1 [HALICLONADIAMINE]
active: Activity [8] | Activity [9] | Activity [10] | Activity [11] | Activity [12] | inhibition [13] | inhibition [14] | Activity [15] | Activity [16] | inhibition [17] | inhibition [18] | inhibition [19] | inhibition [20] | inhibition [21] | Activity (786-0 [22]) | Activity (786-0 [23]) | inhibition [24] | inhibition [25] | inhibition [26] | inhibition [27] | Activity (786-0 [28])
15.1 µM: IC50 (786-0 [2])
Toxic: Activity [5] | Activity [6] | Activity (786-0 [7])
14.8 µM: EC50 [4]
50%: inhibition (786-0 [3])
16.1 µM: IC50 [1]
20%: inhibition at 48 h, 20 µM (total protein expression)
